Laboratory results from patent publication US5972933A, “Method of treating microbial infections” (Ed. Geistlich Sohne AG Fur Chemische Industrie, priority 1998, dated 1999).

Key:
[1] = tested on: VRE, designated HAM-1; settings: commonly encountered VRE; cited from earlier work
[2] = tested on: EMRSA 15 strains; settings: local EMRSA 15 strains, typically; cited from earlier work
[3] = tested on: S. aureus NCTC 6571; assay: Disc sensitivity testing (Stokes), reference strain; assay type: cell-based, Staphylococcus aureus; settings: CLX
Procedure: All routine sensitivity testing was performed using a standard disc diffusion technique (Stokes) performed on Unipath (Oxoid) Diagnostic Sensitivity Test agar with 5% lysed horse blood.
Testing of Staphylococci--Staphylococcus aureus (Oxford strain) NCTC 6571
Inocula for test and control organisms were prepared from overnight 37° C. Unipath (Oxoid) Brain Heart Infusion broth cultures. Prom these well-mixed cultures, 2 drops ([…]) were transferred to 3 ml sterile water. This suspension was used to moisten sterile cotton tipped swabs which were then used with a rotary plater for inoculation of test plates.
The following disc sets were used for sensitivity testing:
Methicillin Sensitivity Testing
Methicillin (cloxacillin) sensitivity for Staphylococci was confirmed using a methicillin test strips (Methi-test, Medical Wire Limited--MW981) and a heavy inoculum. This was prepared by adding 5 colonies from an overnight nutrient agar plate culture 3 ml water.
For each organism, including sensitive and resistant controls, a loop was charged with the heavy inoculum suspension and streaked across a Unipath (Oxoid) Diagnostic Sensitivity Test plus 5% lysed horse blood agar plate in a single direction. A methicillin strip was then placed on the surface of the plate at right angles to the inocula. […]

[4] = tested on: TNF production; assay: TNF production in human blood / antibiotic-treated cultures; assay type: cell-based
Description: Taurolidine and/or Taurultam prevent over-production of cytokines in the patient by monocytes of the blood.

[5] = tested on: bacteria and fungi; assay: Antimicrobial activity (general statements); assay type: cell-based
[6] = cited from earlier work
[7] = tested on: bacteria and fungi; settings: known antimicrobial substances; cited from earlier work
[8] = tested on: Staph. app.; assay: Resistance to Vancomycin (30 μg/Disc), Staph. app.; assay type: cell-based
Procedure: ^1 VE30: Resistance to Vancomycin (30 μg/Disc)

For CC1(C)S[C@@H]2[C@H](NC(=O)[C@H](N)c3ccccc3)C(=O)N2[C@H]1C(=O)O [Ampicillin], the “in vitro resistance of strain” value [1] is given as “resistance in vitro”.
For O=C(O)c1cn(C2CC2)c2cc(N3CCNCC3)c(F)cc2c1=O [Ciprofloxacin], the “in vitro resistance of strain” value [2] is given as “resistant in vitro”.
For CCC[C@@H]1C[C@@H](C(=O)N[C@@H]([C@H]2O[C@H](SC)[C@H](O)[C@@H](O)[C@H]2O)[C@H](C)Cl)N(C)C1 [Clindamycin, clindamycin], the “in vitro resistance of strain” value [2] is given as “resistant in vitro”.
In the case of Cc1onc(-c2ccccc2Cl)c1C(=O)N[C@@H]1C(=O)N2[C@@H]1SC(C)(C)[C@@H]2C(=O)O [Cloxacillin], the “in vitro resistance of strain” value [2] is given as “resistant in vitro” and the “disc sensitivity, methicillin (cloxacillin)” value [3] is given as “S (Test zones <5 mm smaller than the control zone are SENSITIVE)”.
In the case of CC[C@H]1OC(=O)[C@H](C)[C@@H](O[C@H]2C[C@@](C)(OC)[C@@H](O)[C@H](C)O2)[C@H](C)[C@@H](O[C@@H]2O[C@H](C)C[C@H](N(C)C)[C@H]2O)[C@](C)(O)C[C@@H](C)C(=O)[C@H](C)[C@@H](O)[C@]1(C)O [Erythromycin], the “in vitro resistance of strain” value [2] is listed as “resistant in vitro” and the “in vitro resistance of strain” value [1] is listed as “resistance in vitro”.
In the case of COc1cccc(OC)c1C(=O)N[C@@H]1C(=O)N2[C@@H]1SC(C)(C)[C@@H]2C(=O)O [Methicillin, methicillin], the “in vitro resistance of strain” value [2] is listed as “resistant in vitro”.
For C/C(=C\C(=O)OCCCCCCCCC(=O)O)C[C@@H]1OC[C@H](C[C@@H]2O[C@H]2[C@@H](C)[C@H](C)O)[C@@H](O)[C@H]1O [Mupirocin], the “in vitro resistance of strain” value [2] is listed as “resistant in vitro”.
With O=S1(=O)CCNCN1 [Taurultam] the TNF production ([4]; added to antibiotic-treated cultures) was “prevents a rise in TNF production”, the “neutralization of released endotoxins” value ([4]; antibiotic-treated cultures) was “nearly complete neutralization of released endotoxins” and the “rate of bacterial killing” value [5] was “kills bacteria slowly”. For the same compound, the resistance development [5] was “no resistance development by microbes has been observed”, the half-life in vivo [6] was “short half-life in vivo” and the antimicrobial spectrum [7] was “broad-spectrum activity against aerobic and anaerobic bacteria, mycobacteria and fungi”.
In the case of CN[C@H](CC(C)C)C(=O)N[C@H]1C(=O)N[C@@H](CC(N)=O)C(=O)N[C@H]2C(=O)N[C@H]3C(=O)N[C@H](C(=O)N[C@H](C(=O)O)c4cc(O)cc(O)c4-c4cc3ccc4O)[C@H](O)c3ccc(c(Cl)c3)Oc3cc2cc(c3O[C@@H]2O[C@H](CO)[C@@H](O)[C@H](O)[C@H]2O[C@H]2C[C@](C)(N)[C@H](O)[C@H](C)O2)Oc2ccc(cc2Cl)[C@H]1O [Vancomycin], the “in vitro resistance of strain” value [1] is given as “resistance in vitro” and the “VE30: Resistance to Vancomycin” value [8] is given as “S”.
In the case of Gentamicin, the “in vitro resistance of strain” value [1] is listed as “high level gentamicin resistance”.
In the case of Teicoplanin, the “in vitro resistance of strain” value [1] is listed as “resistance in vitro”.
